Results as given in patent US10183941B2, “Pyrimidine or pyridopyridone compound and application thereof” (GUANGZHOU BEBETTER MEDICINE TECHNOLOGY CO., LTD., priority 2015, dated 2019).
Where two headings read alike, the source gives them in different places.

Columns and labels:
[1] = target: T1, CDK4 (GST-CDK4(1-303end)/GST-CycD3(1-292end)) (Homo sapiens, UniProt P11802); experiment: CDK4 activity inhibition experiment (Caliper mobility shift assay); assay type: biochemical; details: enzyme activity inhibition; read-out: CDK4 IC50 class
T1 construct: GST-CDK4(1-303end); purchased Carna 04-105
T1 sequence (P11802 whole entry): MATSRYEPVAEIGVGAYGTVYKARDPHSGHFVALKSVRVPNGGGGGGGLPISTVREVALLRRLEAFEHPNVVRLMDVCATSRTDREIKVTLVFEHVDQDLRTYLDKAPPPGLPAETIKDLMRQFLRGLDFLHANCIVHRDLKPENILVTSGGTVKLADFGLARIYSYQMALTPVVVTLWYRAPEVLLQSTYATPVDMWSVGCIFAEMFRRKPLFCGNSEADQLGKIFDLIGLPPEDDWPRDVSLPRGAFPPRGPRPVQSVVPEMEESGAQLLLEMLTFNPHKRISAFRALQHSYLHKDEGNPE
T1 sequence (P30281 whole entry partner): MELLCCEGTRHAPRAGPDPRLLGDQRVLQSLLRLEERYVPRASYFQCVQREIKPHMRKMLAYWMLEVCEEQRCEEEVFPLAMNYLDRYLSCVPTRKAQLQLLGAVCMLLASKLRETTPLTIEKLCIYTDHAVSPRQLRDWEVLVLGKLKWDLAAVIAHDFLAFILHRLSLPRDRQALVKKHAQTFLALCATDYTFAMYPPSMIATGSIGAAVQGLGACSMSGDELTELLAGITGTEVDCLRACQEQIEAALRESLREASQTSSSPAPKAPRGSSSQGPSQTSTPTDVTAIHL

[2] = tested on: MDA-MB-435 breast cancer cells; experiment: Pharmacodynamic experiment, MDA-MB-435 xenograft; assay type: in vivo, mouse
Method: MDA-MB-435 breast cancer cells were obtained from Shanghai Cell Bank of Chinese Academy of Sciences. Cryopreserved cells were thawed in a 37° C. water bath and then placed in RPMI 1640 medium supplemented with 10% fetal bovine serum (FBS), 1% insulin (Bioman Biotech, Shanghai) and incubated in 5% CO2 of Tissue Culture Incubator. […] The sign of successful transplantation was the formation of a round bulging lump under the skin. Tumor size can be measured approximately two weeks after implantation. The tumor size was measured by a caliper.

[3] = tested on: ZR-75-1; experiment: Tumor cell proliferation inhibition (CellTiter-Glo), ZR-75-1; assay type: cell-based; details: Homo sapiens, 72 hours, 10% fetal bovine serum, read-out: ZR-75-1 IC50 class
Method: (§1) The content of adenosine triphosphate (ATP) was determined using the CellTiter-Glo Luminescent Cell Viability Assay Kit (Promega, Madison, Wis.) to evaluate cell viability. Tumor cell lines (SW620, ZR-75-1, MDA-MB-231) were purchased from the Cell Resource Center of IBS, Fudan University, Shanghai and the American Type Culture Collection (ATCC). The cell density was determined using Scepter automated cell counter (Millipore # PHCC00000) after the cells were digested with pancreatin in cell culture dishes and resuspended in DPBS medium. The cells were diluted to a solution of 44,000 cells per ml. The cell solution of which density was adjusted was added into the cell assay plate at 90 microliters per well. The well plate was incubated in an incubator with 5% CO2 at 37° C. for 24 hours and then added with test compounds with different concentrations. The cells were incubated with the compounds in the presence of 10% fetal bovine serum for 72 hours. ATP content was assayed using the CellTiter-Glo® Luminescent Cell Viability Assay kit (see instructions of manufacturer) to assess cell growth inhibition. Briefly, 30 μl of CellTiter-Glo® reagent was added to each well, rocked for 10 minutes to induce cell lysis, and […] were detected and recorded with Fluoroskan Ascent FL (Thermo). The maximum signal value was obtained from the cells treated with dimethyl sulfoxide for 72 hours. The minimum signal value was obtained from the separate culture medium (cell number was zero). Inhibition rate %=(maximum signal value−compound signal value)/(maximum signal value−minimum signal value)×100. Data was processed using GraphPad Prism V5.0 (GraphPad Software, San Diego, Calif.) software. IC50 values were calculated by fitting S-shaped dose-response curves.

[4] = tested on: MDA-MB-231; experiment: Tumor cell proliferation inhibition (CellTiter-Glo), MDA-MB-231; assay type: cell-based; details: Homo sapiens, 72 hours, 10% fetal bovine serum, read-out: MDA-MB-231 IC50 class
Method: as §1

[5] = target: T2, CDK6 (GST-CDK6(1-326end)) (Homo sapiens, UniProt Q00534); experiment: CDK6 activity inhibition experiment (Caliper mobility shift assay); assay type: biochemical; details: enzyme activity inhibition; read-out: CDK6 IC50 class
T2 construct: GST-CDK6(1-326end); purchased Carna 04-107
T2 sequence (Q00534 whole entry): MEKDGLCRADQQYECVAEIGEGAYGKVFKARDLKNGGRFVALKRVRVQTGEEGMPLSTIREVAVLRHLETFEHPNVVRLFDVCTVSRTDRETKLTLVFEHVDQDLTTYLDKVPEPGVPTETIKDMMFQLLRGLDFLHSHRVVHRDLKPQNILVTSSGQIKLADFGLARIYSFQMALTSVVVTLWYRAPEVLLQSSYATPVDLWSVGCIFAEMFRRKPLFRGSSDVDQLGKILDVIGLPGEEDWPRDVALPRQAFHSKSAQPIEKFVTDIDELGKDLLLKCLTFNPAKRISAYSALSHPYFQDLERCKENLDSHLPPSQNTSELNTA
T2 sequence (P30281 whole entry partner): as the sequence (P30281 whole entry partner) above
Method: The activity of CDK6 protein kinase was measured using Caliper mobility shift assay (see J. Biomol Screen 14:31, 2009). […] 10 μl of the 2.5 times diluted CDK6 enzyme solution (GST-CDK6(1-326end); Carna, Cat. No 04-107) was added and then incubated at room temperature for 10 minutes, then 10 μl of the 2.5 times diluted substrate solution Peptide FAM-P8 (GL Biochem, Cat. No. 112396) was added. After being incubated at 28° C. for 40 minutes, 25 μl of stop solution was added to stop the reaction. Conversion rate data was read from Caliper EZ Reader II (Caliper Life Sciences). The conversion rate data was converted into inhibition rate data. […] Conversion rate data was converted into inhibition rate data according to the method described above. Inhibition rate %=(max−conversion rate)/(max−min)×100.

[6] = tested on: SW620; experiment: Tumor cell proliferation inhibition (CellTiter-Glo), SW620; assay type: cell-based; details: Homo sapiens, SW-620; 72 hours, 10% fetal bovine serum; read-out: SW620 IC50 class
Method: as §1

[7] = tested on: MDA-MB-231 breast cancer cells; experiment: Cell cycle inhibition experiment (PI staining, flow cytometry); assay type: cell-based; details: Homo sapiens, MDA-MB-231 cells, 24 h
Source text: The cell cycle and apoptosis assay kit (Beyotime, C1052) used in this experiment is an assay kit for analyzing the cell cycle and apoptosis using the classic method of Propidium staining (PI staining). Propidium (PI) is a double-stranded DNA fluorescent dye. The combination of propidium and double-stranded DNA can produce fluorescence, and fluorescence intensity is proportional to the amount of double-stranded DNA. After DNA in cells is stained with propidium, the DNA content of the cells can be measured by flow cytometry, and then the cell cycle and apoptosis can be analyzed according to the distribution of DNA content.
MDA-MB-231 cells were seeded into a 6-well plate at 3×10^5 per well and cultured for 24 hours.
In tumor cell cycle, the binding of CDK4 and CDK6 to cyclin D promotes G1 phase into S phase. CDK4/6 inhibitor selectively arrests the G1 phase of tumor cells into S phase. The detection results of the cell cycle of MDA-MB-231 breast cancer cells by flow cytometry indicate that the CDK4/6 inhibitor compounds provided by the present disclosure stop the growth of G1 phase cells and reduce S phase cells in a concentration-dependent manner, as shown in the following table.

[8] = tested on: phosphorylation of Rb at Ser780 in MDA-MB-231 breast cancer cells; experiment: Western Blot experiment, Rb phosphorylation; assay type: cell-based; details: MDA-MB-231 cells, 16 hours incubation, FIG. 1
Method: MDA-MB-231 cells were grown in monolayer culture. […] The protein concentration was determined by the Branfor method. After being added with a loading buffer (Beyotime, # P0015L), the supernatant was boiled at 100° C. for 8 min, and the protein was separated by 8%-10% SDS-PAGE electrophoresis and then transferred to the PVDF membrane, and the membrane was blocked with 5% skimmed milk powder for 45 min, and then the cells were incubated overnight at 4° C. with primary antibody β-actin (CST, #4970), Rb (D20) Rabbit mAb (CST, #9313), Phospho-Rb(Ser780)(D59B7) Rabbit mAb (CST, #8180), and then the membrane was washed with TBST solution for 3×10 min. The cells were incubated in the dark at room temperature for 2 h with the fluorescent secondary antibody IRDye@680CW Goat (polyclonal) Anti-Rabbit 1gG (H+L), Highly Cross Adsorbed (LI-COR, #926-68071), and then the membrane was washed under the same condition above. Finally, the membrane was detected and imaged on a LI-COR Odyssey Infrared Fluorescence Scanning System, and the results are shown in FIG. 1.
CDK4/6 can make Rb protein lose the arrest on cell cycle by phosphorylating the tumor suppressor protein Rb protein. CDK4/6 inhibitor can prevent the inactivation of tumor suppressor protein Rb and thereby restore the arrest of Rb on cell cycle.

CC(=O)c1c(C)c2cnc(Nc3ccc(C4CCN(CCS(C)(=O)=O)CC4)cn3)nc2n(C2CCCC2)c1=O [Compound 1, 6-acetyl-8-cyclopentyl-5-methyl-2-((5-(1-(2-(methylsulfonyl)ethyl)piperidin-4-yl)pyridin-2-yl)amino)pyrido[2,3-d]pyrimidin-7(8H)-one]
IC50 [1]: < 10 nM | T/C value ([2]; after 14 days of oral administration, PD-0332991 150 then 100 mg/kg once daily, Compound 1 75 mg/kg twice daily): 25% | T/C value ([2]; day 6 after discontinuation (D20)): 32% | IC50 [3]: 100 to 500 nM | IC50 [4]: 100 to 500 nM | IC50 [5]: 10 to 50 nM | IC50 [6]: 100 to 500 nM | IC50 ([7]; read-out: IC50 (nM) G1 arrest): 41.7 nM | IC50 ([7]; read-out: IC50 (nM) S decrease): 46.1 nM | phosphorylation of Rb at Ser780 site [8]: effectively reduce
